Experimental data from article PMC10539439 (Pharmacological Reports, 2023).
“And” between values parts separate entries of the source, which are not always exact repeats. Identical values can stand only once. Like-named read-outs stand apart in the source and are kept apart here.

Biological target: T1, TAAR1 (Homo sapiens, UniProt Q96RJ0)
T1 sequence (Q96RJ0 1-339): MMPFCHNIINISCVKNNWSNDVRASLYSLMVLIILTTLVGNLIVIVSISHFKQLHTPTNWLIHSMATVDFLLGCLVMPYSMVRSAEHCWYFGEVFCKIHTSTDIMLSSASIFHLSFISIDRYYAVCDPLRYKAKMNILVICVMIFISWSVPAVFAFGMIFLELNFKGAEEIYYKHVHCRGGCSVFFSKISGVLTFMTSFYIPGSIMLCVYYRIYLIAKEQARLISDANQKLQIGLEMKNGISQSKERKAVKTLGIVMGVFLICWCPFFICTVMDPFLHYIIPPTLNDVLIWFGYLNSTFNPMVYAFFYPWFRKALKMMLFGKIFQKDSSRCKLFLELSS
Assay: Intrinsic activity, Hit Hunter cAMP assay
Type: cell-based
Procedure: The intrinsic activity study at cells with overexpression of TAAR1 (Eurofins, cat. No. 95-0173C2) was carried out at Eurofins Discoveries (Fremont, USA) using the Hit Hunter cAMP method. This assay monitors the activation of a GPCR via Gi and Gs secondary messenger signaling in a homogenous, non-imaging assay format using a technology developed by DiscoverX called Enzyme Fragment Complementation (EFC) with β-galactosidase (β-Gal) as the functional reporter. The enzyme is split into two complementary portions: EA for Enzyme Acceptor and ED for Enzyme Donor. ED is fused to cAMP and in the assay competes with cAMP generated by cells for binding to a cAMP-specific antibody. Active β-Gal is formed by complementation of exogenous EA to any unbound EDcAMP.
cAMP Hunter cell lines were expanded from freezer stocks according to standard procedures. Cells were seeded in a total volume of 20 µL into white-walled, 384-well microplates and incubated at 37 ℃ for the appropriate time prior to testing. For agonist determination, cells were incubated with a sample to induce a response. Media was aspirated from cells and replaced with 15 µL 2:1 HBSS/10 mM Hepes:cAMP XS + Ab reagent. Intermediate dilution of sample stocks was performed to generate 4X samples in assay buffer. 5 µL of 4 × sample was added to cells and incubated at 37 ℃ or room temperature for 30 or 60 min. Vehicle concentration was 1%. […] Microplates were read following signal generation with a PerkinElmer Envision instrument for chemiluminescent signal detection.

[1] = cAMP, Agonist, Conc(M) 1.00E-07

With NCCc1ccc(O)cc1 [p-Tyramine] as the compound, how does the “Curve Bottom” value (cAMP, Agonist) read?
Its value is -5.337.

What about the “Curve Top” value (cAMP, Agonist) of the same compound?
The value was 100.3.

And the Hill (cAMP, Agonist)?
Its Hill is 1.0838.

And the “Raw Value” (cAMP, Agonist, Conc 0.0254026)?
The value was 800 and 1040.

What about the “Raw Value” (cAMP, Agonist, Conc 0.0762079) of the same compound?
Its value is 1080 and 1160.

And the “Percent Efficacy” value (cAMP, Agonist, Conc 0.228624)?
The value was 12.1951 and 16.0976.

And the “Raw Value” (cAMP, Agonist, Conc 0.228624)?
Its value is 1640.

And the “Percent Efficacy” value (cAMP, Agonist, Conc 0.685871)?
The value was 41.0732 and 48.8781.

And the “Raw Value” (cAMP, Agonist, Conc 0.685871)?
The value was 3120 and 3520.

What about the “Percent Efficacy” value (cAMP, Agonist, Conc 2.05761) of the same compound?
The value was 73.0732 and 71.5122.

What about the “Raw Value” (cAMP, Agonist, Conc 2.05761) of the same compound?
The value was 4760 and 4680.

And the “Percent Efficacy” value (cAMP, Agonist, Conc 6.17284)?
Its value is 84.7805 and 92.5854.

What about the “Raw Value” (cAMP, Agonist, Conc 6.17284) of the same compound?
Its value is 5360 and 5760.

What about the “Percent Efficacy” value (cAMP, Agonist, Conc 18.5185) of the same compound?
Its value is 89.4634 and 99.6098.

What about the “Raw Value” (cAMP, Agonist, Conc 18.5185) of the same compound?
Its value is 5600 and 6120.

And the “Percent Efficacy” value (cAMP, Agonist, Conc 55.5556)?
Its value is 100.39 and 104.293.

And the “Raw Value” (cAMP, Agonist, Conc 55.5556)?
Its value is 6160 and 6360.

What about the “Percent Efficacy” value (cAMP, Agonist, Conc 166.667) of the same compound?
The value was 105.073 and 97.2683.

And the “Raw Value” (cAMP, Agonist, Conc 166.667)?
The value was 6400 and 6000.

And the “Percent Efficacy” value (cAMP, Agonist, Conc 500)?
The value was 107.415 and 90.2439.

What about the “Raw Value” (cAMP, Agonist, Conc 500) of the same compound?
Its value is 6520 and 5640.

And the Emax (cAMP, Agonist, read-out: Max Response)?
The Emax was 101%.

And the EC50 (cAMP, Agonist, read-out: RC50 (Result Type EC50))?
Its EC50 is 0.802 µM.

With Clc1cccc(N2CCNCC2)c1 [mCPP, 1-(3-Chlorophenyl)piperazine] as the compound, how does the EC50 read?
Its EC50 is 237 µM.

What about the “Intrinsic activity at TAAR1 (in words)” value of the same compound?
The value was “weak agonistic activity”.

And the “Average Value (raw signal)” value (cAMP, Agonist, Conc(M) 1e-6)?
Its value is 1440.00.

What about the “Value 1 / Value 2 (raw signal)” value (cAMP, Agonist, Conc(M) 1e-6) of the same compound?
The value was 1520 and 1360.

And the “Average Value (raw signal)” value (cAMP, Agonist, Conc(M) 1e-5)?
Its value is 1660.00.

What about the “Value 1 / Value 2 (raw signal)” value (cAMP, Agonist, Conc(M) 1e-5) of the same compound?
Its value is 1520 and 1800.

What about the “Average Value (raw signal)” value (cAMP, Agonist, Conc(M) 0.0001) of the same compound?
Its value is 2760.00.

And the “Value 1 / Value 2 (raw signal)” value (cAMP, Agonist, Conc(M) 0.0001)?
Its value is 2560 and 2960.

And the Emax at 100 µM (cAMP, Agonist, Conc(M) 0.0001 (10^–4 M), read-out: % Efficacy (of the full agonist tyramine))?
Its Emax at 100 µM is 34%.

And the “Average Value (raw signal)” value [1]?
The value was 1260.00.

What about the “Value 1 / Value 2 (raw signal)” value [1] of the same compound?
The value was 1440 and 1080.
